US9765067B2, “Thiophen-2-yl-pyridin-2-yl-1H-pyrazole-4-carboxylic acid derivatives and the use thereof as soluble guanylate cyclase activators” (Novartis AG, priority 2014, dated 2017)

Biological target: T1, soluble guanylate cyclase (human GUCYA3/GUCYB3) overexpressed in CHO cells (Homo sapiens, UniProt Q02108+Q02153)
T1 construct: expressed in transfected cells
T1 sequence (Q02108 1-690 partner): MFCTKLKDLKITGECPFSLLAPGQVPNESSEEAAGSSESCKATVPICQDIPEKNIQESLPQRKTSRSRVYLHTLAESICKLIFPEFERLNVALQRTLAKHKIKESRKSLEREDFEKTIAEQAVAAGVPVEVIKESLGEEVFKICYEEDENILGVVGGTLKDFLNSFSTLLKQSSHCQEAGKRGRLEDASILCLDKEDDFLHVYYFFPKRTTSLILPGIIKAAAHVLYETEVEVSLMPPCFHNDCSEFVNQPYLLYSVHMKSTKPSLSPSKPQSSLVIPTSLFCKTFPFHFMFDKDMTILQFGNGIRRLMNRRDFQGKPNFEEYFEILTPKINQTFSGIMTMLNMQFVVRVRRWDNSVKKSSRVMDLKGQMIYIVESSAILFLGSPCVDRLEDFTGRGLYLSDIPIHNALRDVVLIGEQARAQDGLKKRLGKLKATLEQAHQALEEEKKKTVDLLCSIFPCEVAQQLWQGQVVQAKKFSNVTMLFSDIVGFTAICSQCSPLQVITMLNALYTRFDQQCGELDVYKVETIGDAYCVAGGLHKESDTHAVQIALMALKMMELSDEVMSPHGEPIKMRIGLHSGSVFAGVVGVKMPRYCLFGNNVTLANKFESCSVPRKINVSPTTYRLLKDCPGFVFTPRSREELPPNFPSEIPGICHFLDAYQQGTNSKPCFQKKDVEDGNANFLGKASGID
T1 sequence (Q02153 1-619): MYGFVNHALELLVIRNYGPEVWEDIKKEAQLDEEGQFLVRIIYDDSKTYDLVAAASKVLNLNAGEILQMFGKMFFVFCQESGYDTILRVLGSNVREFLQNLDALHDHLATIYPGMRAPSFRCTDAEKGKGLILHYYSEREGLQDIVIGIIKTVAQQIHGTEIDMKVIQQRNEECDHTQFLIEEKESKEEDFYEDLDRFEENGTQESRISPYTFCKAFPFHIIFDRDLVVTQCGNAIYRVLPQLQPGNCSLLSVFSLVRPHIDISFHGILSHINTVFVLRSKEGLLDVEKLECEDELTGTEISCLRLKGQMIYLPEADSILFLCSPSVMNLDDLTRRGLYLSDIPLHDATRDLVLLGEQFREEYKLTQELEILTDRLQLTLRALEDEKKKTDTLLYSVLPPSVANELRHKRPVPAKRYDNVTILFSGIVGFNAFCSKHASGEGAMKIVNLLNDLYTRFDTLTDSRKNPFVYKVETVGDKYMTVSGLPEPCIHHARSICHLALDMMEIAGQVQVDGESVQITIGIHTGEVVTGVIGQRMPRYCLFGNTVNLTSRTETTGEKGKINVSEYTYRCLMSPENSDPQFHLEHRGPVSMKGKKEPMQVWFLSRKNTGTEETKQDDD
Test: CHO cellular assay (cGMP production, HTRF)
Format: cell-based
Settings: CHO K1 clone 8E10 overexpressing human sGC, Cisbio HTRF, 1 h room temperature, 1 mM IBMX, 20 uM ODQ, minimum quantification limit 0.5 nM
How it was run: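 Stable CHO K1 clone expressing human GUCYA3/GUCYB3. Compounds applied 1 h at room temperature in HBSS, 0.1% BSA, 1 mM IBMX, 20 uM ODQ, 0.5% DMSO. cGMP measured by HTRF and interpolated from a standard curve; EC50 from 4-parameter sigmoidal fit.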

Row | EC50 | Compound
1 | 887 nM | Cc1cc(C2CCN(C(=O)C3CNC3)CC2)ccc1OCc1ccsc1-c1cccc(-n2ncc(C(=O)O)c2C(F)(F)F)n1 [Example 43, 1-(6-(3-((4-(1-(Azetidine-3-carbonyl)piperidin-4-yl)-2-methylphenoxy)methyl)thiophen-2-yl)pyridin-2-yl)-5-(trifluoromethyl)-1H-pyrazole-4-carboxylic acid]
2 | 37 nM | Cc1c(OCc2ccsc2-c2cccc(-n3ncc(C(=O)O)c3C(F)(F)F)n2)ccc2c1CCN(Cc1ccccn1)C2 [Example 10-7, 1-(6-(3-(((5-Methyl-2-(pyridin-2-ylmethyl)-1,2,3,4-tetrahydroisoquinolin-6-yl)oxy)methyl)thiophen-2-yl)pyridin-2-yl)-5-(trifluoromethyl)-1H-pyrazole-4-carboxylic acid]
3 | ≤ 0.5 nM | CCc1cc(NCc2c(C(F)(F)F)csc2-c2cccc(-n3ncc(C(=O)O)c3CC)n2)ccc1C1CCN(C(=O)C2CC2)CC1 [Example 38, 1-(6-(3-(((4-(1-(Cyclopropanecarbonyl)piperidin-4-yl)-3-ethylphenyl)amino)methyl)-4-(trifluoromethyl)thiophen-2-yl)pyridin-2-yl)-5-ethyl-1H-pyrazole-4-carboxylic acid]
4 | ≤ 0.5 nM | CCc1cc(OCc2ccsc2-c2cccc(-n3ncc(C(=O)O)c3C)n2)ccc1C1CCN(C(=O)C2CC2)CC1 [Example 10-1, 1-(6-(3-((4-(1-(Cyclopropanecarbonyl)piperidin-4-yl)-3-ethylphenoxy)methyl)thiophen-2-yl)pyridin-2-yl)-5-methyl-1H-pyrazole-4-carboxylic acid]
5 | ≤ 0.5 nM | CCc1c(C(=O)O)cnn1-c1cccc(-c2sc(C)cc2COc2ccc(C3CCN(C(=O)C4CC4)CC3)cc2C)n1 [Example 35-10, 1-(6-(3-((4-(1-(Cyclopropanecarbonyl)piperidin-4-yl)-2-methylphenoxy)methyl)-5-methylthiophen-2-yl)pyridin-2-yl)-5-ethyl-1H-pyrazole-4-carboxylic acid]
6 | 1 nM | CCc1c(C2CCN(C(=O)C3CC3)CC2)ccc(OCc2cc(C)sc2-c2cccc(-n3ncc(C(=O)O)c3C(F)(F)F)n2)c1F [Example 35-13, 1-(6-(3-((4-(1-(Cyclopropanecarbonyl)piperidin-4-y1)-3-ethyl-2-fluorophenoxy)methyl)-5-methylthiophen-2-yl)pyridin-2-yl)-5-(trifluoromethyl)-1H-pyrazole-4-carboxylic acid]
7 | 1 nM | Cc1cc(C2CCN(C(=O)C3CC3)CC2)ccc1NCc1c(C)csc1-c1cccc(-n2ncc(C(=O)O)c2C(F)(F)F)n1 [Example 19, 1-(6-(3-(((4-(1-(Cyclopropanecarbonyl)piperidin-4-yl)-2-methylphenyl)amino)methyl)-4-methylthiophen-2-yl)pyridin-2-yl)-5-(trifluoromethyl)-1H-pyrazole-4-carboxylic acid]
8 | ≤ 0.5 nM | Cc1cc(C2CCN(C(=O)C3CC3)CC2)ccc1CCc1ccsc1-c1cccc(-n2ncc(C(=O)O)c2C(F)(F)F)n1 [Example 26, 1-(6-(3-(4-(1-(Cyclopropanecarbonyl)piperidin-4-yl)-2-methylphenethyl)thiophen-2-yl)pyridin-2-yl)-5-(trifluoromethyl)-1H-pyrazole-4-carboxylic acid]
9 | 46 nM | Cc1cc(C2CCN(C(=O)C3CC(O)C3)CC2)ccc1OCc1ccsc1-c1cccc(-n2ncc(C(=O)O)c2C(F)(F)F)n1 (centres unmarked) [Example 12-5, 1-(6-(3-((4-(1-(3-Hydroxycyclobutanecarbonyl)piperidin-4-yl)-2-methylphenoxy)methyl)thiophen-2-yl)pyridin-2-yl)-5-(trifluoromethyl)-1H-pyrazole-4-carboxylic acid]
10 | 3.5 nM | Cc1cc(C2CCN(CC(F)(F)F)CC2)ccc1OCc1c(-c2cccc(-n3ncc(C(=O)O)c3C(F)(F)F)n2)sc(C)c1C [Example 18-5, 1-(6-(4,5-Dimethyl-3-((2-methyl-4-(1-(2,2,2-trifluoroethyl)piperidin-4-yl)phenoxy)methyl)thiophen-2-yl)pyridin-2-yl)-5-(trifluoromethyl)-1H-pyrazole-4-carboxylic acid]
11 | ≤ 0.5 nM | CCC(=O)N1CCC(c2ccc(OCc3cc(C)sc3-c3cccc(-n4ncc(C(=O)O)c4C(F)(F)F)n3)c(C)c2)CC1 [Example 21, 1-(6-(5-Methyl-3-((2-methyl-4-(1-propionylpiperidin-4-yl)phenoxy)methyl)thiophen-2-yl)pyridin-2-yl)-5-(trifluoromethyl)-1H-pyrazole-4-carboxylic acid]
12 | 2 nM | CCc1c(C(=O)O)cnn1-c1cccc(-c2sc(C)cc2COc2ccc(C3CCN(CC(F)(F)F)CC3)cc2C)n1 [Example 18-2, 5-Ethyl-1-(6-(5-methyl-3-((2-methyl-4-(1-(2,2,2-trifluoroethyl)piperidin-4-yl)phenoxy)methyl)thiophen-2-yl)pyridin-2-yl)-1H-pyrazole-4-carboxylic acid]
13 | 1.4 nM | Cc1cc(C2CCN(C(=O)C3CC3)CC2)ccc1OCc1cc(C2CC2)sc1-c1cccc(-n2ncc(C(=O)O)c2C(F)(F)F)n1 [Example 6-7, 1-(6-(3-((4-(1-(Cyclopropanecarbonyl)piperidin-4-yl)-2-methylphenoxy)methyl)-5-cyclopropylthiophen-2-yl)pyridin-2-yl)-5-(trifluoromethyl)-1H-pyrazole-4-carboxylic acid]
14 | ≤ 0.5 nM | Cc1cc(CCc2ccc(C3CCN(C(=O)C4CC4)CC3)cc2C)c(-c2cccc(-n3ncc(C(=O)O)c3C(F)(F)F)n2)s1 [Example 25, 1-(6-(3-(4-(1-(Cyclopropanecarbonyl)piperidin-4-yl)-2-methylphenethyl)-5-methylthiophen-2-yl)pyridin-2-yl)-5-(trifluoromethyl)-1H-pyrazole-4-carboxylic acid]
15 | 4.5 nM | O=C(O)c1cnn(-c2cccc(-c3sccc3CNc3ccc(C4CCN(C(=O)C5CC5)CC4)cc3)n2)c1C(F)(F)F [Example 28, 1-(6-(3-(((4-(1-(Cyclopropanecarbonyl)piperidin-4-yl)phenyl)amino)methyl)thiophen-2-yl)pyridin-2-yl)-5-(trifluoromethyl)-1H-pyrazole-4-carboxylic acid]
16 | 24 nM | CCC(=O)N1CCC(c2ccc(OCc3ccsc3-c3cccc(-n4ncc(C(=O)O)c4C(F)(F)F)n3)cc2)CC1 [Example 1, 1-(6-(3-((4-(1-Propionylpiperidin-4-yl)phenoxy)methyl)thiophen-2-yl)pyridin-2-yl)-5-(trifluoromethyl)-1H-pyrazole-4-carboxylic acid]
17 | 15 nM | CCC(=O)N1CCC(c2ccc(OCc3ccsc3-c3cccc(-n4ncc(C(=O)O)c4C(F)(F)F)n3)c(C(F)(F)F)c2)CC1 [Example 33-2, (6-(3-((4-(1-Propionylpiperidin-4-yl)-2-(trifluoromethyl)phenoxy)methyl)thiophen-2-yl)pyridin-2-yl)-5-(trifluoromethyl)-1H-pyrazole-4-carboxylic acid]
18 | 2 nM | COc1cc(C2CCN(C(=O)C3CC3)CC2)ccc1OCc1ccsc1-c1cccc(-n2ncc(C(=O)O)c2C(F)(F)F)n1 [Example 6-4, 1-(6-(3-((4-(1-(Cyclopropanecarbonyl)piperidin-4-yl)-2-methoxyphenoxy)methyl)thiophen-2-yl)pyridin-2-yl)-5-(trifluoromethyl)-1H-pyrazole-4-carboxylic acid]
19 | 1 nM | COc1cc(OCc2ccsc2-c2cccc(-n3ncc(C(=O)O)c3C(F)(F)F)n2)ccc1C1CCN(C(=O)C2CC2)CC1 [Example 6-5, 1-(6-(3-((4-(1-(Cyclopropanecarbonyl)piperidin-4-yl)-3-methoxyphenoxy)methyl)thiophen-2-yl)pyridin-2-yl)-5-(trifluoromethyl)-1H-pyrazole-4-carboxylic acid]
20 | 15 nM | Cc1cc(C2CCN(C(=O)C3CC3)CC2)ccc1OC(C)c1ccsc1-c1cccc(-n2ncc(C(=O)O)c2C(F)(F)F)c1 (centres unmarked) [Example 10-8, 1-(3-(3-(1-(4-(1-(Cyclopropanecarbonyl)piperidin-4-yl)-2-methylphenoxy)ethyl)thiophen-2-yl)phenyl)-5-(trifluoromethyl)-1H-pyrazole-4-carboxylic acid]
